Laboratory results published in DBAASP.
≈ marks a conversion by molar mass, not a printed value. Each block holds one compound with its values, some of them ahead of it.

Legend:
Experiment in all cases: ≥ marks a high value that may be exact or a test limit, other limits are often not marked, values filed in µg/mL are converted to µM
[1] = test system: Zymomonas mobilis ATCC 10988
[2] = test system: Candida parapsilosis
[3] = test system: Escherichia coli DH5alpha
[4] = test system: Bacillus subtilis DELTA
[5] = test system: Pseudomonas aeruginosa PAO1
[6] = test system: Corynebacterium glutamicum ATCC 13032
[7] = test system: Escherichia coli ATCC 25922
[8] = test system: Escherichia coli HB101
[9] = test system: Staphylococcus aureus ATCC 9144
[10] = test system: Pseudomonas aeruginosa ATCC 27853
[11] = test system: Staphylococcus aureus ATCC 33591
[12] = test system: Staphylococcus aureus ATCC 700699
[13] = test system: Staphylococcus aureus ATCC 29213
[14] = test system: Klebsiella pneumoniae ATCC 700603
[15] = test system: Pseudomonas aeruginosa CGMCC 1.860
[16] = test system: Escherichia coli AS1.349
[17] = test system: Enterococcus faecalis CGMCC 1.595
[18] = test system: Staphylococcus epidermidis CICC 23664
[19] = test system: Enterobacter cloacae CGMCC 1.58
[20] = test system: Enterococcus faecium CGMCC 1.2334
[21] = test system: Bacillus cereus AS1.126
[22] = test system: Staphylococcus aureus AS1.72
[23] = test system: Proteus mirabilis CICC 22931
[24] = test system: Klebsiella pneumoniae subsp. pneumoniae CGMCC 1.176
[25] = test system: Pectobacterium carotovorum subsp. carotovorum DSM 30168
[26] = test system: Xanthomonas vesicatoria DSM 50861
[27] = test system: Pseudomonas syringae pv. syringae DSM 10604
[28] = test system: Pseudomonas syringae pv. tomato DC3000
[29] = test system: Staphylococcus aureus 90857
[30] = test system: Clavibacter michiganensis subsp. michiganensis DSM 46294
[31] = test system: Pseudomonas corrugata DSM 7228
[32] = test system: Escherichia coli KCTC 2223
[33] = test system: Micrococcus luteus ATCC 10240
[34] = test system: Staphylococcus aureus ATCC 15752
[35] = test system: Escherichia coli W160-37
[36] = test system: Staphylococcus aureus

Structure (SMILES): CC[C@H](C)[C@H](NC(=O)[C@H](CCCCN)NC(=O)[C@H](CCCCN)NC(=O)[C@H](CC(C)C)NC(=O)CN)C(=O)N[C@H](C(=O)N[C@@H](CCCCN)C(=O)N[C@@H](CCCCN)C(=O)N[C@@H](CC(C)C)C(=O)N[C@@H](CC(C)C)C(N)=O)[C@@H](C)CC [GLKKIIKKLL]
- MIC [1]: 17.3 µM (≈ 20 µg/mL)
- MIC [2]: 17.3 µM (≈ 20 µg/mL)
- MIC [3]: ≥ 173 µM
- MIC [4]: 13 µM (≈ 15 µg/mL)
- MIC [5]: 13 µM (≈ 15 µg/mL)

Structure (SMILES): CC[C@H](C)[C@H](NC(=O)[C@@H]1CCCN1C(=O)[C@H](CCCCN)NC(=O)[C@@H]1CCCN1C(=O)[C@H](CCCN=C(N)N)NC(=O)CNC(=O)[C@@H]1CCCN1C(=O)[C@H](Cc1ccccc1)NC(=O)[C@@H]1CCCN1C(=O)[C@H](CCCN=C(N)N)NC(=O)[C@@H]1CCCN1C(=O)[C@H](CCCN=C(N)N)NC(=O)CN)C(=O)N[C@@H](Cc1ccccc1)C(=O)N[C@@H](CCCN=C(N)N)C(=O)N1CCC[C@H]1C(=O)N[C@@H](CCCN=C(N)N)C(=O)O [GRPRPFPGRPKPIFRPR]
- MIC [6]: 3.1 µM (≈ 6.3 µg/mL)
- MIC [7]: 70.7 µM (≈ 144 µg/mL)
- MIC [8]: 25 µM (≈ 50.8 µg/mL)
- MIC [9]: ≥ 100 µM
- MIC [10]: 70.7 µM (≈ 144 µg/mL)

Structure (SMILES): CC[C@H](C)[C@H](NC(=O)[C@H](CC(=O)O)NC(=O)[C@H](CCCCN)NC(=O)[C@H](C)NC(=O)[C@H](C)NC(=O)CNC(=O)[C@H](C)NC(=O)[C@H](CC(C)C)NC(=O)[C@@H](NC(=O)[C@H](CC(=O)O)NC(=O)[C@@H](NC(=O)[C@@H](NC(=O)CN)C(C)C)C(C)C)[C@@H](C)CC)C(=O)N[C@@H](C)C(=O)NCC(=O)N[C@@H](Cc1cnc[nH]1)C(=O)N[C@@H](CC(C)C)C(=O)N[C@@H](C)C(=O)N[C@@H](CO)C(=O)N[C@@H](CCCCN)C(=O)N[C@H](C(=O)N[C@@H](CCSC)C(=O)N[C@@H](CC(N)=O)C(=O)N[C@@H](CCCCN)C(=O)N[C@@H](CC(C)C)C(N)=O)C(C)C [GVVDILAGAAKDIAGHLASKVMNKL]
- MIC [11]: ≥ 100 µM
- MIC [7]: > 100 µM
- MIC [12]: ≥ 100 µM
- MIC [10]: > 100 µM
- MIC [13]: > 100 µM
- MIC [14]: > 100 µM

Structure (SMILES): CC[C@H](C)[C@H](NC(=O)[C@H](CC(=O)O)NC(=O)[C@H](CCCCN)NC(=O)[C@H](C)NC(=O)[C@H](C)NC(=O)CNC(=O)[C@H](CCCCN)NC(=O)[C@H](CC(C)C)NC(=O)[C@@H](NC(=O)[C@H](CC(=O)O)NC(=O)[C@@H](NC(=O)[C@@H](NC(=O)CN)C(C)C)C(C)C)[C@@H](C)CC)C(=O)N[C@@H](C)C(=O)NCC(=O)N[C@@H](Cc1cnc[nH]1)C(=O)N[C@@H](CC(C)C)C(=O)N[C@@H](C)C(=O)N[C@@H](CO)C(=O)N[C@@H](C)C(=O)N[C@H](C(=O)N[C@@H](CCSC)C(=O)N[C@@H](CC(N)=O)C(=O)N[C@@H](CCCCN)C(=O)N[C@@H](CC(C)C)C(N)=O)C(C)C [GVVDILKGAAKDIAGHLASAVMNKL]
- MIC [11]: ≥ 100 µM
- MIC [7]: 100 µM (≈ 249 µg/mL)
- MIC [12]: ≥ 100 µM
- MIC [10]: > 100 µM
- MIC [13]: > 100 µM
- MIC [14]: > 100 µM

Now from value to compound:

- MIC [15]: 4.69 µM (≈ 8.31 µg/mL)
- MIC [16]: 2.5 µM (≈ 4.43 µg/mL)
- MIC [17]: 5 µM (≈ 8.86 µg/mL)
- MIC [18]: 2.5 µM (≈ 4.43 µg/mL)
- MIC [19]: ≥ 100 µM
- MIC [20]: 12.5 µM (≈ 22.2 µg/mL)
- MIC [21]: 6.25 µM (≈ 11.1 µg/mL)
- MIC [22]: 2.5 µM (≈ 4.43 µg/mL)
- MIC [23]: ≥ 100 µM
- MIC [24]: ≥ 100 µM
Structure (SMILES): CC[C@H](C)[C@H](N)C(=O)N[C@@H](CCCCN)C(=O)N[C@@H](CCCCN)C(=O)N[C@H](C(=O)N[C@@H](Cc1c[nH]c2ccccc12)C(=O)N[C@@H](CO)C(=O)N[C@@H](CCCCN)C(=O)N[C@H](C(=O)N[C@@H](CCCCN)C(=O)N[C@@H](CCCCN)C(=O)N[C@@H](Cc1c[nH]c2ccccc12)C(=O)N[C@@H](Cc1c[nH]c2ccccc12)C(=O)N[C@@H](CCCCN)C(=O)O)[C@@H](C)CC)[C@@H](C)CC [IKKIWSKIKKWWK]

- MIC [25]: 1.65 µM (≈ 2.5 µg/mL)
- MIC [26]: 0.0661 µM (≈ 0.0999 µg/mL)
- MIC [27]: 0.165 µM (≈ 0.25 µg/mL)
- MIC [28]: 0.661 µM (≈ 0.999 µg/mL)
- MIC [29]: 0.625 µM (≈ 0.945 µg/mL)
- MIC [30]: 0.165 µM (≈ 0.25 µg/mL)
- MIC [31]: 1.65 µM (≈ 2.5 µg/mL)
Structure (SMILES): CC[C@H](C)[C@H](NC(=O)[C@H](CC(C)C)NC(=O)[C@H](CCCCN)NC(=O)[C@H](CCCCN)NC(=O)[C@H](CC(C)C)NC(=O)[C@@H](NC(=O)[C@H](CCCCN)NC(=O)[C@H](CCCCN)NC(=O)[C@@H](NC(=O)[C@H](Cc1ccccc1)NC(=O)[C@H](CCCN=C(N)N)NC(=O)[C@@H](N)CC(C)C)[C@@H](C)CC)[C@@H](C)CC)C(N)=O [LRFIKKILKKLI]

- MIC [32]: ≥ 32 µM
- MIC [33]: ≥ 32 µM
- MIC [34]: ≥ 32 µM
Structure (SMILES): CC[C@H](C)[C@H](NC(=O)[C@H](CCCCN)NC(=O)[C@@H](NC(=O)[C@@H](N)CC(N)=O)[C@@H](C)CC)C(=O)N[C@@H](CO)C(=O)NCC(=O)N[C@@H](CCCCN)C(=O)N[C@@H](Cc1c[nH]c2ccccc12)C(=O)N[C@@H](CCCCN)C(=O)N[C@@H](C)C(=O)N[C@@H](CCC(N)=O)C(=O)N[C@@H](CCCCN)C(=O)N[C@@H](CCCN=C(N)N)C(=O)N[C@@H](Cc1ccccc1)C(=O)N[C@@H](CC(C)C)C(=O)N[C@@H](CCCCN)C(=O)O [NIKISGKWKAQKRFLK]

- MIC [35]: ≥ 154 µM
- MIC [36]: 154 µM (≈ 203 µg/mL)
Structure (SMILES): CC[C@H](C)[C@H](NC(=O)[C@H](Cc1c[nH]c2ccccc12)NC(=O)[C@H](CCCCN)NC(=O)[C@H](CO)NC(=O)[C@H](CC(C)C)NC(=O)[C@H](Cc1ccccc1)NC(=O)[C@H](CCCCN)NC(=O)[C@H](CC(C)C)NC(=O)[C@H](CCCCN)NC(=O)[C@@H]1CCCN1)C(=O)NCC(=O)O [PKLKFLSKWIG]

- MIC [6]: 12.5 µM (≈ 22.7 µg/mL)
- MIC [7]: > 100 µM
- MIC [8]: ≥ 100 µM
- MIC [9]: ≥ 100 µM
- MIC [10]: > 100 µM
Structure (SMILES): CC[C@H](C)[C@H](NC(=O)[C@@H]1CCCN1C(=O)[C@H](CCCCN)NC(=O)[C@@H]1CCCN1C(=O)[C@H](CCCN=C(N)N)NC(=O)CNC(=O)[C@@H]1CCCN1C(=O)[C@H](Cc1ccccc1)NC(=O)[C@@H]1CCCN1C(=O)[C@H](CCCN=C(N)N)NC(=O)[C@@H]1CCCN1)C(=O)N[C@@H](Cc1ccccc1)C(=O)N[C@@H](CCCN=C(N)N)C(=O)N1CCC[C@H]1C(=O)N[C@@H](CCCN=C(N)N)C(=O)O [PRPFPGRPKPIFRPR]

- MIC [25]: 6.69 µM (≈ 9.99 µg/mL)
- MIC [26]: 6.69 µM (≈ 9.99 µg/mL)
- MIC [27]: 3.34 µM (≈ 5 µg/mL)
- MIC [28]: 0.669 µM (≈ 0.999 µg/mL)
- MIC [29]: ≥ 62.5 µM
- MIC [30]: 6.69 µM (≈ 9.99 µg/mL)
- MIC [31]: 6.69 µM (≈ 9.99 µg/mL)
Structure (SMILES): CC(C)C[C@H](NC(=O)[C@H](CCCCN)NC(=O)[C@H](CCCCN)NC(=O)[C@H](CCCCN)NC(=O)[C@@H](N)CCCN=C(N)N)C(=O)N[C@@H](CCCCN)C(=O)N[C@H](C(=O)N[C@H](C(=O)N[C@@H](CCCCN)C(=O)N[C@@H](CCCN=C(N)N)C(=O)N[C@@H](CC(C)C)C(=O)N[C@H](C(N)=O)C(C)C)C(C)C)C(C)C [RKKKLKVVKRLV]
